Source: patent US9096686B2, “E518A/K mutant smoothened and methods of using the same” (Genentech, Inc., priority 2010, dated 2015)
“Also recorded” adds a separate entry of the source. Read-outs that look alike come from different tables or passages of the source.

Key:
SMO-E518K = target: T1, SMO-E518K (Homo sapiens, UniProt Q99835, E518K); experiment: Gli-luciferase reporter assay, SMO-E518K overexpression in C3H10T½ cells; type: cell-based
T1 construct: expressed in transfected cells; host or cells: C3H10T1/2 mouse fibroblasts (ATCC CCL-226), pRK5 vector, CMV promoter
Protocol: (§1) Regions targeted by alanine scan mutagenesis are indicated in light grey. […] Values were normalized to maximum activity levels and represent means±SDs.
(§2) Circles mark the A-, B- and C-rings of some compounds as indicated for HhAntag.
(§3) Gli-luciferase reporter assays. Gli-luciferase reporter assays were performed as described (Rudin, C. M. et al. (2009) N. Engl. J. Med. 361:1173-1178) with the following modifications; C3H10T½ cells (ATCC, CCL-226) were seeded into six-well plates at 1.85×10^5 cells/well and values shown are the mean of four separate experiments ±1 standard deviation (SD).
(§4) These compounds were either identified in high-throughput screens (both in house and by others) or were generated by hit-to-lead optimization of screening hits using traditional medicinal chemistry methods. C3H10T½ cells were co-transfected with wild type or mutant SMO expression vectors together with a Gli-luciferase reporter construct (Murone M. et al. (1999) Curr. Biol. 9(2):76-84), and pathway activation was measured in the presence or absence of 1 μM compound.

SMO-D473H = target: T2, SMO-D473H (Homo sapiens, UniProt Q99835, D473H); experiment: Gli-luciferase reporter assay, SMO-D473H overexpression in C3H10T½ cells; type: cell-based
T2 construct: expressed in transfected cells; host or cells: C3H10T1/2 mouse fibroblasts (ATCC CCL-226), pRK5 vector, CMV promoter
Protocol: as §2, §3, §4

[1] = Plasma pharmacokinetics after single oral dose in mice; type: in vivo
Excerpt: as §2

SMO-E518A = target: T3, SMO-E518A (Homo sapiens, UniProt Q99835, E518A); experiment: Gli-luciferase reporter assay, SMO-E518A in C3H10T½ cells; type: cell-based; conditions: dose response; signaling activity despite 1 μM
T3 construct: expressed in transfected cells; host or cells: C3H10T1/2 mouse fibroblasts (ATCC CCL-226), pRK5 vector, CMV promoter
Protocol: as §1, §3

medulloblastoma = medulloblastoma patient, widespread metastatic disease; cited from earlier work
[2] = Metabolism by human hepatocytes; type: in vitro ADME; conditions: unpublished observation
SMO-WT = target: T4, SMO-WT (Homo sapiens, UniProt Q99835); experiment: Gli-luciferase reporter assay, SMO-WT overexpression in C3H10T½ cells; type: cell-based; conditions: 1 μM compound
T4 construct: expressed in transfected cells; host or cells: C3H10T1/2 mouse fibroblasts (ATCC CCL-226), pRK5 vector, CMV promoter
Protocol: as §2, §3, §4

T1 sequence (Q99835 28-787 E518K): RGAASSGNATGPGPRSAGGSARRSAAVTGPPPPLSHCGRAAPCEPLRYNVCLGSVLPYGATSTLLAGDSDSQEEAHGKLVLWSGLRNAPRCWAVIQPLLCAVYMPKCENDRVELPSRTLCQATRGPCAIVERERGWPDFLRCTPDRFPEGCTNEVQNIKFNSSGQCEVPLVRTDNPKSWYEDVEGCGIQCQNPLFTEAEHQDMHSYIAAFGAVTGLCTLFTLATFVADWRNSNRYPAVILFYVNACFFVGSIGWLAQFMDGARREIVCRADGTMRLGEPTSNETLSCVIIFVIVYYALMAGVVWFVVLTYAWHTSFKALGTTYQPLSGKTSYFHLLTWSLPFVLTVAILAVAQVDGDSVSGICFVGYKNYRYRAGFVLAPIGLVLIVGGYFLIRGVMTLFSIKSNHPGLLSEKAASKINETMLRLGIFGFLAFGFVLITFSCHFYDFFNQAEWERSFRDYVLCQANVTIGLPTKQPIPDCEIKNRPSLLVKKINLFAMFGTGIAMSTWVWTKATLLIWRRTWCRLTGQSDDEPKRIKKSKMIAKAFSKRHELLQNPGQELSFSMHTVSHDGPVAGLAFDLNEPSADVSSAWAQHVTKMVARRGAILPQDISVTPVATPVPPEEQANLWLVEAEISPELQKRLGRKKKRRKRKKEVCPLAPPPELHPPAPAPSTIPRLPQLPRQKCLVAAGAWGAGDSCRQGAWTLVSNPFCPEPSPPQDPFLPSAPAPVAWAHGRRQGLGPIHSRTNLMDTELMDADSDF
T2 sequence (Q99835 28-787 D473H): as the sequence (Q99835 28-787 E518K) above, with D446H, K491E counted along it
T3 sequence (Q99835 28-787 E518A): as the sequence (Q99835 28-787 E518K) above, with K491A counted along it
T4 sequence (Q99835 28-787): as the sequence (Q99835 28-787 E518K) above, with K491E counted along it

## C[C@@H]1CN(c2ccc(C(=O)Nc3ccc(Cl)c(NC(=O)c4cccc(Cl)c4)c3)cn2)C[C@H](C)N1 [compound 5]
SMO-E518K; 1 μM compound, C3H10T½ cells
  potency against SMO-E518K (inhibition of Gli-luciferase activity): potent
SMO-D473H; 1 μM compound, C3H10T½ cells
  potency against SMO-D473H (inhibition of Gli-luciferase activity): potent; also recorded: improved potencies
[1]
  pharmacokinetic properties in mice: good pharmacokinetic properties
[1]; mouse, single oral 100 mg kg-1 dose, plasma
  half-life: 22 h

## CS(=O)(=O)c1ccc(C(=O)Nc2ccc(Cl)c(-c3ccccn3)c2)c(Cl)c1 [GDC-0449]
SMO-E518K; dose response, up to 1 μM
  resistance of SMO-E518K to the inhibitor, Gli-luciferase reporter activity: completely resistant
SMO-E518A
  resistance of SMO-E518A to the inhibitor, Gli-luciferase reporter activity: partially resistant
medulloblastoma
  clinical response to treatment: dramatic and rapid response

## Cc1nn(-c2ccccc2)c(C)c1/C=N/N1CCN(Cc2ccccc2)CC1 [SANT-1]
SMO-E518K; 1 μM compound, C3H10T½ cells
  potency against SMO-E518K (inhibition of Gli-luciferase activity): sensitive
SMO-D473H; 1 μM compound, C3H10T½ cells
  potency against SMO-D473H (inhibition of Gli-luciferase activity): partially resistant

## O=C(Nc1ccc(Cl)c(NC(=O)c2cccc(Cl)c2)c1)c1ccc(N2CCC(O)CC2)nc1 [compound 4]
SMO-E518K; 1 μM compound, C3H10T½ cells
  potency against SMO-E518K (inhibition of Gli-luciferase activity): potent
SMO-D473H; 1 μM compound, C3H10T½ cells
  potency against SMO-D473H (inhibition of Gli-luciferase activity): potent; also recorded: improved potencies
[1]
  pharmacokinetic properties in mice: good pharmacokinetic properties

## HhAntag
SMO-E518K; 1 μM compound, C3H10T½ cells
  potency against SMO-E518K (inhibition of Gli-luciferase activity): essentially equipotent against all SMO alleles
SMO-D473H; 1 μM compound, C3H10T½ cells
  potency against SMO-D473H (inhibition of Gli-luciferase activity): essentially equipotent against all SMO alleles
[2]
  metabolism by human hepatocytes: rapidly metabolized
SMO-WT
  activity against wild type SMO (inhibition of Gli-luciferase activity): essentially equipotent against all SMO alleles

## CC1=C2C[C@H]3[C@@H](CC=C4C[C@@H](O)CC[C@@]43C)[C@@H]2CC[C@]12O[C@@H]1C[C@H](C)CN[C@H]1[C@H]2C [cyclopamine]
SMO-E518K
  potency against SMO-E518K (inhibition of Gli-luciferase activity): completely resistant
SMO-D473H
  potency against SMO-D473H (inhibition of Gli-luciferase activity): partially resistant
